Experimental data published in patent US20170247326A1, “Substituted Pyrrolidine Carboxamide Compounds” (EPIZYME, INC., priority 2014, published 2017).
pIC50: −log10 of the molar value.

These compounds were tested against T1, SMYD2 (Homo sapiens, UniProt Q9NRG4) (assay: SMYD2 biochemical assay (3H-SAM, biotinylated peptide substrate, Flashplate)). Details: Table 1; average of n = 1 to n = 50; read-out: SMYD2 Biochem IC50.
T1 construct: Full length SMYD2 (NP_064582.2) was cloned; His6 (N, cleaved yes); FLAG (N); made in house; host or cells: Sf9 insect cells
Source text: S-adenosylmethionine (SAM), S-adenosylhomocysteine (SAH), bicine, Tween20, dimethylsulfoxide (DMSO), bovine skin gelatin (BSG), and Tris(2-carboxyethyl)phosphine hydrochloride (TCEP) were purchased from Sigma-Aldrich at the highest level of purity possible. ^3H-SAM was purchase from American Radiolabeled Chemicals with a specific activity of 80 Ci/mmol. 384-well streptavidin Flashplates were purchased from PerkinElmer.
Peptide was synthesized with a N-terminal linker-affinity tag motif and a C-terminal amide cap by 21st Century Biochemicals. The peptide was high high-performance liquid chromatography (HPLC) purified to greater than 95% purity and confirmed by liquid chromatography mass spectrometry (LC-MS). The sequence was […](K-Biot)-amide. (SEQ ID NO: 3)
Full length SMYD2 (NP_064582.2) was cloned into a pFastbac-Htb-lic vector with an N-terminal His6 tag and FLAG tag, preceded by a TEV protease cleavage site. The protein was expressed in Sf9 insect cells. Cells were resuspended in lysis buffer (25 mM HEPES-NaOH, pH 7.5, 200 mM NaCl, 5% glycerol, and 5 mM […] and lysed by sonication. The protein was purified by Ni-NTA (Qiagen), followed by TEV cleavage to remove the His6 tag, subtractive Ni-NTA (Qiagen), and gel filtration chromatography using an S200 column (GE Healthcare). Purified protein was stored in 20 mM Tris-HCl, pH 8.0, 100 mM NaCl, and 1 mM TCEP.
General Procedure for SMYD2 Enzyme Assays on Peptide Substrates
The assays were all performed in a buffer consisting of 20 mM Bicine (pH=7.6), 1 mM TCEP, 0.005% Bovine Skin Gelatin, and 0.002% Tween20, prepared on the day of use. Compounds in 100% DMSO (1 ul) were spotted into a polypropylene 384-well V-bottom plates (Greiner) using a Platemate Plus outfitted with a 384-channel head (Thermo Scientific). DMSO (1 ul) was added to Columns 11, 12, 23, 24, rows A-H for the maximum signal control and 1 ul of SAH, a known product and inhibitor of SMYD2, was added to columns 11, 12, 23, 24, rows I-P for the minimum signal control. A cocktail (40 ul) containing the SMYD2 enzyme was added by Multidrop Combi (Thermo-Fisher). The compounds were allowed to incubate with SMYD2 for 30 min at room temperature, then a cocktail (10 ul) containing ^3H-SAM and peptide was added to initiate the reaction (final volume=51 ul). The final concentrations of the components were as follows: SMYD2 was 1.5 nM, ^3H-SAM was 10 nM, and peptide was 60 nM, SAH in the minimum signal control wells was 1000 uM, and the DMSO concentration was 2%. The assays were stopped by the addition of non-radioactive SAM (10 ul) to a final concentration of 600 uM, which dilutes the ^3H-SAM to a level where its incorporation into the peptide substrate is no longer detectable. 50 ul of the reaction in the 384-well polypropylene plate was then transferred to a 384-well Flashplate and the biotinylated peptides were allowed to bind to the streptavidin surface for at least 1 hour before being washed three times with 0.1% Tween20 in a Biotek ELx405 plate washer. The plates were then read in a PerkinElmer TopCount plate reader to measure the quantity of ^3H-labeled peptide bound to the Flashplate surface, measured as disintegrations per minute (dpm) or alternatively, referred to as counts per minute (cpm).
Where dpm=disintegrations per minute, cmpd=signal in assay well, and min and max are the respective minimum and maximum signal controls.
Where top and bottom are the normally allowed to float, but may be fixed at 100 or 0 respectively in a 3-parameter fit. The Hill Coefficient normally allowed to float but may also be fixed at 1 in a 3-parameter fit. I is the compound concentration.
SMYD2 biochemical assay data for representative Compounds of the Disclosure are presented in Tables 1, 3, and 4 in the column titled “SMYD2 Bicohem IC50 (μM).”

T1 sequence (Q9NRG4 whole entry): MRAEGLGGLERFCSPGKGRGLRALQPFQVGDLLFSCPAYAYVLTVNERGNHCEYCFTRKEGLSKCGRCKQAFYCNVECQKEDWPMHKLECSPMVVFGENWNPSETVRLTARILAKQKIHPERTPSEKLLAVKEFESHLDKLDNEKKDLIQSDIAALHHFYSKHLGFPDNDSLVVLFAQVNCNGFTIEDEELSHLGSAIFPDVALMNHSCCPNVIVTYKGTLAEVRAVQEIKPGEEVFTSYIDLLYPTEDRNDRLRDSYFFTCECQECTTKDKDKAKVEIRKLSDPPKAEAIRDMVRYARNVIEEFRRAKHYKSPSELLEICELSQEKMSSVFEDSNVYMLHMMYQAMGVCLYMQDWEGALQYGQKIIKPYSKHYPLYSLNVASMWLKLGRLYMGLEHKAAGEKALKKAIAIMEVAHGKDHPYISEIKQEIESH

Row | pIC50 | SMILES
1 | < 4.30 | CC1Oc2ccc(C(=O)N[C@H]3CN(C4CC4)C[C@@H]3C)cc2NC1=O (mixture of isomers) [compound 7, (±)-trans-N-(1-cyclopropyl-4-methylpyrrolidin-3-yl)-2-methyl-3-oxo-3,4-dihydro-2H-benzo[b][1,4]oxazine-6-carboxamide]
2 | < 4.30 | CCc1cc(C(=O)N[C@H]2CN(C3CC3)C[C@@H]2C)ns1 (racemic) [compound 11, (±)-trans-N-(1-cyclopropyl-4-methylpyrrolidin-3-yl)-5-ethylisothiazole-3-carboxamide]

Same assay, conditions: Table 3; average of n = 1 to n = 50; read-out: SMYD2 Biochem IC50

Row | pIC50 | SMILES
3 | < 4.30 | CC(C)N1C[C@@H](C)[C@H](NC(=O)c2cnc(C3CC3)o2)C1 (racemic) [compound 70, (±)-trans-2-cyclopropyl-N-[4-methyl-1-(propan-2-yl)pyrrolidin-3-yl]-1,3-oxazole-5-carboxamide]
4 | < 4.30 | CC(C)N1C[C@H](C)[C@H](NC(=O)c2nsc(C3CC3)n2)C1 (racemic) [compound 88, (±)-cis-5-cyclopropyl-N-[4-methyl-1-(propan-2-yl)pyrrolidin-3-yl]-1,2,4-thiadiazole-3-carboxamide]
5 | 5.57 | CC(C)N1C[C@H](C)[C@H](NC(=O)c2nnc(C3CC3)s2)C1 (racemic) [compound 41, (±)-cis-5-cyclopropyl-N-[4-methyl-1-(propan-2-yl)pyrrolidin-3-yl]-1,3,4-thiadiazole-2-carboxamide]
6 | 5.29 | CCc1cnnc(C(=O)N[C@@H]2CN(C(C)C)C[C@@H]2C)c1 (racemic) [compound 96, (±)-cis-5-ethyl-N-[4-methyl-1-(propan-2-yl)pyrrolidin-3-yl]pyridazine-3-carboxamide]
7 | < 4.30 | CC(C)N1C[C@@H](C)[C@H](NC(=O)c2ncc(C3CC3)o2)C1 (racemic) [compound 73, (±)-trans-5-cyclopropyl-N-[4-methyl-1-(propan-2-yl)pyrrolidin-3-yl]-1,3-oxazole-2-carboxamide]
8 | < 4.30 | CC(C)N1C[C@@H](C)[C@H](NC(=O)c2nccc(C3CC3)n2)C1 (racemic) [compound 67, (±)-trans-4-cyclopropyl-N-[4-methyl-1-(propan-2-yl)pyrrolidin-3-yl]pyrimidine-2-carboxamide]
9 | < 4.30 | CC(C)N1C[C@@H](C)[C@@H](NC(=O)c2cc(C3CC3)n(C)n2)C1 (racemic) [compound 89, (±)-cis-5-cyclopropyl-1-methyl-N-[4-methyl-1-(propan-2-yl)pyrrolidin-3-yl]-1H-pyrazole-3-carboxamide]
10 | < 4.30 | CC(C)N1C[C@H](C)[C@H](NC(=O)c2cc(C3CCC3)cnn2)C1 (racemic) [compound 94, (±)-cis-5-cyclobutyl-N-[4-methyl-1-(propan-2-yl)pyrrolidin-3-yl]pyridazine-3-carboxamide]
11 | 6.11 | CC(C)N1C[C@H](C)[C@H](NC(=O)c2cn(C3CC3)nn2)C1 (racemic) [compound 27, (±)-cis-1-cyclopropyl-N-[4-methyl-1-(propan-2-yl)pyrrolidin-3-yl]-1H-1,2,3-triazole-4-carboxamide]
12 | < 4.30 | CC(C)N1C[C@@H](C)[C@@H](NC(=O)c2nc(C3CC3)ns2)C1 (racemic) [compound 86, (±)-cis-3-cyclopropyl-N-[4-methyl-1-(propan-2-yl)pyrrolidin-3-yl]-1,2,4-thiadiazole-5-carboxamide]
13 | 6.61 | CC(C)N1C[C@@H](C)[C@@H](NC(=O)c2cc(C3CC3)cnn2)C1 (stereo in doubt) [compound 101, rel-5-cyclopropyl-N-[(3R,4R)-4-methyl-1-(propan-2-yl)pyrrolidin-3-yl]pyridazine-3-carboxamide]
14 | < 4.30 | CC(C)N1C[C@H](C)[C@H](NC(=O)c2ncc(C3CC3)cn2)C1 (racemic) [compound 59, (±)-cis-5-cyclopropyl-N-[4-methyl-1-(propan-2-yl)pyrrolidin-3-yl]pyrimidine-2-carboxamide]
15 | 4.43 | CC(C)N1C[C@H](C)[C@H](NC(=O)c2n[nH]c(C3CC3)n2)C1 (racemic) [compound 84, (±)-cis-5-cyclopropyl-N-[4-methyl-1-(propan-2-yl)pyrrolidin-3-yl]-1H-1,2,4-triazole-3-carboxamide]
16 | < 4.30 | CC(C)N1C[C@H](C)[C@H](NC(=O)c2ccc(C3CC3)[nH]c2=O)C1 (racemic) [compound 83, (±)-cis-6-cyclopropyl-N-[4-methyl-1-(propan-2-yl)pyrrolidin-3-yl]-2-oxo-1,2-dihydropyridine-3-carboxamide]
17 | 6.11 | CC(C)N1C[C@H](C)[C@H](NC(=O)c2cc(C3CC3)sn2)C1 (racemic) [compound 93, (±)-cis-5-cyclopropyl-N-[4-methyl-1-(propan-2-yl)pyrrolidin-3-yl]-1,2-thiazole-3-carboxamide]
18 | 5.78 | C[C@H]1CN(C)C[C@H]1NC(=O)c1cc(C2CC2)cnn1 (racemic) [compound 103, (±)-cis-5-cyclopropyl-N-(1,4-dimethylpyrrolidin-3-yl)pyridazine-3-carboxamide]
19 | < 4.30 | CC(C)N1C[C@H](C)[C@H](NC(=O)c2nccc(C3CC3)n2)C1 (racemic) [compound 60, (±)-cis-4-cyclopropyl-N-[4-methyl-1-(propan-2-yl)pyrrolidin-3-yl]pyrimidine-2-carboxamide]
20 | 5.20 | CC(C)N1C[C@H](C)[C@H](NC(=O)c2cn(C(C)C)nn2)C1 (racemic) [compound 25, (±)-cis-N-[4-methyl-1-(propan-2-yl)pyrrolidin-3-yl]-1-(propan-2-yl)-1H-1,2,3-triazole-4-carboxamide]
21 | 4.98 | CC(C)c1cnnc(C(=O)N[C@@H]2CN(C(C)C)C[C@@H]2C)c1 (racemic) [compound 118, (±)-cis-5-isopropyl-N-(1-isopropyl-4-methylpyrrolidin-3-yl)pyridazine-3-carboxamide]
22 | 5.57 | C[C@H]1CN(Cc2ccc(OCc3ccccc3)cc2)C[C@@H]1NC(=O)c1cc(C2CC2)cnn1 (racemic) [compound 107, (±)-trans-N-(1-{[4-(benzyloxy)phenyl]methyl}-4-methylpyrrolidin-3-yl)-5-cyclopropylpyridazine-3-carboxamide]
23 | < 4.30 | CC(C)N1C[C@H](C)[C@H](NC(=O)c2c[nH]c(C3CC3)n2)C1 (racemic) [compound 77, (±)-cis-2-cyclopropyl-N-[4-methyl-1-(propan-2-yl)pyrrolidin-3-yl]-1H-imidazole-4-carboxamide]

Same assay, conditions: Table 4; average of n = 1 to n = 50; read-out: SMYD2 Biochem IC50

Row | pIC50 | SMILES
24 | 6.34 | C[C@@H]1CN(Cc2ccc(OCc3ccccc3)cc2)C[C@@H]1NC(=O)c1cn(C2CC2)nn1 (stereo in doubt) [compound 131, rac-N-((3R,4R)-1-(4-(benzyloxy)benzyl)-4-methylpyrrolidin-3-yl)-1-cyclopropyl-1H-1,2,3-triazole-4-carboxamide]
25 | < 4.30 | CNCCS(=O)(=O)N1C[C@H](C)[C@H](NC(=O)c2cc(C3CC3)cnn2)C1 (racemic) [compound 128, rac-5-cyclopropyl-N-((3R,4R)-4-methyl-1-((2-(methylamino)ethyl)sulfonyl)pyrrolidin-3-yl)pyridazine-3-carboxamide]
26 | 6.11 | CC(C)N1C[C@H](CO)[C@H](NC(=O)c2cc(C3CC3)cnn2)C1 (racemic) [compound 129, rac-5-cyclopropyl-N-((3R,4R)-4-(hydroxymethyl)-1-isopropylpyrrolidin-3-yl)pyridazine-3-carboxamide]
